This note sets out measurements from US8153818B2, “Triazolyl phenyl benzenesulfonamides” (ChemoCentryx, Inc., priority 2006, dated 2012).

The target in this experiment is T1, CCR9 (Homo sapiens, UniProt P51686).
T1 construct: chemokine expressing cells (such as THP-1 cells for CCR2 assay or MOLT-4 cells for CCR9 assay); host or cells: MOLT-4
T1 sequence (P51686 1-369): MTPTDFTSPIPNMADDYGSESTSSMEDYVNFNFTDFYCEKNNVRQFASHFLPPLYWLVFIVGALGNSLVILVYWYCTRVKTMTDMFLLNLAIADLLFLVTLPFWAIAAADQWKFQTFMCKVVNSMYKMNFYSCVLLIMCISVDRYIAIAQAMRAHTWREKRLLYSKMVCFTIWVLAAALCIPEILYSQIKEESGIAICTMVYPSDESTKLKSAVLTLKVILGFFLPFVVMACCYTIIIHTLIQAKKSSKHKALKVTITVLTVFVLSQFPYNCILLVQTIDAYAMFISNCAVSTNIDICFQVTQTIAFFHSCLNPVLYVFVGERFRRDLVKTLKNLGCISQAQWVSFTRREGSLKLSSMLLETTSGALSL
As to the kind of experiment: CCR9 activity in one of the chemotaxis, binding or calcium mobilization assays. The class given is cell-based. The note with it: assay not specified per compound. On the procedure:
Conventional migration assay was used to determine the efficacy of potential receptor antagonists in blocking migration mediated through chemokines (such as CCR2 or CCR9). This assay was routinely performed using the ChemoTX® microchamber system with a 5-μm pore-sized polycarbonate membrane. To begin such an assay, chemokine expressing cells (such as THP-1 cells for CCR2 assay or MOLT-4 cells for CCR9 assay) were harvested by centrifugation of cell suspension at 1000 RPM on a GS-6R Beckman centrifuge. The cell pellet was resuspended in chemotaxis buffer (HBSS with 0.1% BSA) at 10×10^6 cells/mL for CCR2 assay (5×10^6 cells/mL for CCR9 assay). Test compounds at desired concentrations were prepared from 10 mM stock solutions by serial dilutions in chemotaxis buffer. An equal volume of cells and compounds were mixed and incubated at room temperature for 15 minutes. Afterwards, 20 μL of the mixture was transferred onto the porous membrane of a migration microchamber, with 29 μL of chemokine ligand (0.1 nM chemokine MCP-1 protein for CCR2 assay or […] chemokine TECK protein for CCR9 assay) placed at the lower chamber. Following an incubation at 37° C. (90-minute for CCR2; 150-minute for CCR9), during which cells migrated against the chemokine gradient, the assay was terminated by removing the cell drops from atop the filter. To quantify cells migrated across the membrane, 5 μL of 7×CyQUANT® solution was added to each well in the lower chamber, and the fluorescence signal measured on a Spectrafluor Plus fluorescence plate reader (TECAN, Durham, N.C.). The degree of inhibition was determined by comparing migration signals between compound-treated and untreated cells. IC50 calculation was further performed by non-linear squares regression analysis using Graphpad Prism (Graphpad Software, San Diego, Calif.).
Calcium flux assay measures an increase in intracellular calcium following ligand-induced receptor activation. In the screen of chemokine antagonists, it was used as a secondary assay carried out on a FLIPR® machine (Molecular Devices, Mountain View, Calif.). To begin an assay, chemokine expressing cells (such as THP-1 cells for CCR2 assay or MOLT-4 cells for CCR9 assay) were harvested by centrifugation of cell suspension, and resuspended to 1.5×10^6 cells/mL in HBSS (with 1% fetal calf serum). Cells were then labeled with a calcium indicator dye Fluo-4 AM for 45 minutes at 37° C. with gentle shaking. Following incubation, cells were pelletted, washed once with HBSS and resuspended in the same buffer at a density of 1.6×10^6 cells/mL. One hundred microliters of labeled cells were mixed with 10 μL of test compound at the appropriate concentrations on an assay plate. Chemokine protein (MCP-1 at a final concentration of 0.1 nM for CCR2 assay or TECK at a final concentration of 25 nM for CCR9 assay) to activate the receptor. The degree of inhibition was determined by comparing calcium signals between compound-treated and untreated cells. IC50 calculations were further performed by non-linear squares regression analysis using Graphpad Prism (Graphpad Software, San Diego, Calif.). […]
In the tables below, structures and activity are provided for representative compounds described herein. Activity is provided as follows for either or both of the chemotaxis assay and/or calcium mobilization assays, described above.

Each structure is given as a SMILES string. pIC50: −log10 of the molar value.

For orientation: pIC50 means the IC50 on a negative log10 scale, so that one unit is a factor of ten. As to `Cc1nnc(-c2cc(Cl)ccc2NS(=O)(=O)c2ccc(C(C)(C)C)cc2)n1CC(C)C` [Compound 19, 4-tert-butyl-N-(4-chloro-2-(4-isobutyl-5-methyl-4H-1,2,4-triazol-3-yl)phenyl)benzenesulfonamide], the pIC50 was over 6.00.

Regarding `CC(=O)N1CCC(n2c(C)nnc2-c2cc(Cl)ccc2NS(=O)(=O)c2ccc(C(C)(C)C)cc2)CC1` [Compound 91], the pIC50 was over 6.00.

Regarding `Cc1ocnc1-c1nnc(-c2cc(Cl)c(F)cc2NS(=O)(=O)c2ccc(C(C)(C)C)cc2)n1C` [Compound 79], the pIC50 was over 6.00.

In the case of `CC(C)(C)c1ccc(S(=O)(=O)Nc2ccc(Cl)cc2-c2nncn2C2CNC2)cc1` [Compound 131], the pIC50 was over 6.00.

`Cn1c(-c2cc(Cl)c(F)cc2NS(=O)(=O)c2ccc(C(C)(C)C)cc2)nnc1C1CCOC1` (stereo not drawn) [Compound 115]: the pIC50 was over 6.00.

For `COCCN(C)Cc1nnc(-c2cc(Cl)c(F)cc2NS(=O)(=O)c2ccc(C(C)(C)C)cc2)n1C` [Compound 149, 4-tert-butyl-N-(4-chloro-5-fluoro-2-(5-(((2-methoxyethyl)(methyl)amino)methyl)-4-methyl-4H-1,2,4-triazol-3-yl)phenyl)benzenesulfonamide], the negative logarithm of the IC50 (pIC50) is over 6.00.

As for `CCn1c(C)nnc1-c1ccc(F)cc1NS(=O)(=O)c1ccc(C(C)(C)C)cc1` [Compound 74, 4-tert-butyl-N-(2-(4-ethyl-5-methyl-4H-1,2,4-triazol-3-yl)-5-fluorophenyl)benzenesulfonamide], the pIC50 was over 6.00.

Regarding `Cn1c(-c2cc(Cl)ccc2NS(=O)(=O)c2ccc(C(C)(C)C)cc2)nnc1[C@H]1CCCO1` [Compound 34], the pIC50 is over 6.00.

In the case of `Cn1cnnc1-c1cc(Cl)c(F)cc1NS(=O)(=O)c1ccc(C(C)(C)C)cc1` [Compound 76, 4-tert-butyl-N-(4-chloro-5-fluoro-2-(4-methyl-4H-1,2,4-triazol-3-yl)phenyl)benzenesulfonamide], the pIC50 was over 6.00.

For `CC(C)(C)c1ccc(S(=O)(=O)Nc2cc(F)c(F)cc2-c2nncn2C2CCOC2)cc1` (stereo not drawn) [Compound 42], the pIC50 is over 6.00.

Consider `CCn1cnnc1-c1ccc(F)cc1NS(=O)(=O)c1ccc(C(C)(C)C)cc1` [Compound 23, 4-tert-butyl-N-(2-(4-ethyl-4H-1,2,4-triazol-3-yl)-5-fluorophenyl)benzenesulfonamide], for which the negative-log IC50 (pIC50) was over 6.00.

With `Cc1nnc(-c2cc(Cl)c(F)cc2NS(=O)(=O)c2ccc(C(C)(C)C)cc2)n1C1CCOC1` (stereo not drawn) [Compound 80], the negative logarithm of the IC50 (pIC50) is over 6.00.

Take `CC(C)(C)c1ccc(S(=O)(=O)Nc2cc(F)c(Cl)cc2-c2nncn2C2CCOC2)cc1` (stereo not drawn) [Compound 120]: the pIC50 was over 6.00.

With `CCn1cnnc1-c1c(NS(=O)(=O)c2ccc(C(C)(C)C)cc2)ccc(Cl)c1F` [Compound 25, 4-tert-butyl-N-(4-chloro-2-(4-ethyl-4H-1,2,4-triazol-3-yl)-3-fluorophenyl)benzenesulfonamide], the pIC50 is over 6.00.

With `CC(C)(C)c1ccc(S(=O)(=O)Nc2cc(F)c(Cl)cc2-c2nncn2C2CCCNC2)cc1` (stereo not drawn) [Compound 44], the pIC50 was over 6.00.

For `CC(C)(C)c1ccc(S(=O)(=O)Nc2ccc(Cl)cc2-c2nncn2[C@H]2CCN(C(N)=O)C2)cc1` [Compound 143], the negative logarithm of the IC50 (pIC50) is over 6.00.

In the case of `CCc1nnc(-c2cc(Cl)ccc2NS(=O)(=O)c2ccc(C(C)(C)C)cc2)n1CC` [Compound 38, 4-tert-butyl-N-(4-chloro-2-(4,5-diethyl-4H-1,2,4-triazol-3-yl)phenyl)benzenesulfonamide], the pIC50 was over 6.00.

`CC(C)n1c(CN2CCOCC2)nnc1-c1cc(Cl)c(F)cc1NS(=O)(=O)c1ccc(C(C)(C)C)cc1` [Compound 154]: the pIC50 is over 6.00.

As for `Cn1c(CN2CCC2)nnc1-c1cc(Cl)c(F)cc1NS(=O)(=O)c1ccc(C(C)(C)C)cc1` [Compound 122], the pIC50 was over 6.00.

On to `CCn1c(C)nnc1-c1c(NS(=O)(=O)c2ccc(C(C)(C)C)cc2)ccc(Cl)c1F` [Compound 29, 4-tert-butyl-N-(4-chloro-2-(4-ethyl-5-methyl-4H-1,2,4-triazol-3-yl)-3-fluorophenyl)benzenesulfonamide], for which the negative logarithm of the IC50 (pIC50) is over 6.00.

Turning to `Cc1nnc(-c2cc(Cl)ccc2NS(=O)(=O)c2ccc(C(C)(C)C)cc2)n1C1CCOCC1` [Compound 12], the pIC50 is over 6.00.

Regarding `CC(C)N1CC[C@H](n2cnnc2-c2cc(Cl)ccc2NS(=O)(=O)c2ccc(C(C)(C)C)cc2)C1` [Compound 141], the pIC50 is over 6.00.

Regarding `Cc1nnc(-c2cc(Cl)ccc2NS(=O)(=O)c2ccc(C(C)(C)C)cc2)n1C1CC1` [Compound 7, 4-tert-butyl-N-(4-chloro-2-(4-cyclopropyl-5-methyl-4H-1,2,4-triazol-3-yl)phenyl)benzenesulfonamide], the negative logarithm of the IC50 (pIC50) is over 6.00.

Consider `Cn1c(-c2ccccn2)nnc1-c1cc(Cl)ccc1NS(=O)(=O)c1ccc(C(C)(C)C)cc1` [Compound 97, 4-tert-butyl-N-(4-chloro-2-(4-methyl-5-(pyridin-2-yl)-4H-1,2,4-triazol-3-yl)phenyl)benzenesulfonamide], for which the pIC50 is over 6.00.

For `Cn1c(CN2CCOCC2)nnc1-c1cc(Cl)ccc1NS(=O)(=O)c1ccc(C(C)(C)C)cc1` [Compound 144], the pIC50 is over 6.00.

In the case of `CC(O)c1nnc(-c2cc(Cl)c(F)cc2NS(=O)(=O)c2ccc(C(C)(C)C)cc2)n1C` (stereo not drawn) [Compound 59, 4-tert-butyl-N-(4-chloro-5-fluoro-2-(5-(1-hydroxyethyl)-4-methyl-4H-1,2,4-triazol-3-yl)phenyl)benzenesulfonamide], the pIC50 was over 6.00.

In the case of `Cn1c(C(N)=O)nnc1-c1cc(Cl)c(F)cc1NS(=O)(=O)c1ccc(C(C)(C)C)cc1` [Compound 55, 5-(2-(4-tert-butylphenylsulfonamido)-5-chloro-4-fluorophenyl)-4-methyl-4H-1,2,4-triazole-3-carboxamide], the pIC50 was over 6.00.

For `CCc1nnc(-c2cc(C(=O)OC)ccc2NS(=O)(=O)c2ccc(C(C)(C)C)cc2)n1C` [Compound 133, methyl 4-(4-tert-butylphenylsulfonamido)-3-(5-ethyl-4-methyl-4H-1,2,4-triazol-3-yl)benzoate], the pIC50 is over 6.00.

In the case of `Cc1nnc(-c2cc(Cl)ccc2NS(=O)(=O)c2ccc(C(C)(C)C)cc2)n1C1CCNC1` (stereo not drawn) [Compound 99], the pIC50 was over 6.00.

Consider `Cc1nnc(-c2cc(Cl)ccc2NS(=O)(=O)c2ccc(C(C)(C)C)cc2)n1CCN(C)C` [Compound 125, 4-tert-butyl-N-(4-chloro-2-(4-(2-(dimethylamino)ethyl)-5-methyl-4H-1,2,4-triazol-3-yl)phenyl)benzenesulfonamide], for which the negative logarithm of the IC50 (pIC50) was over 6.00.

`C[C@@H](O)c1nnc(-c2cc(Cl)c(F)cc2NS(=O)(=O)c2ccc(C(C)(C)C)cc2)n1C` [Compound 61]: the pIC50 is over 6.00.

For the molecule `COCc1nnc(-c2cc(Cl)ccc2NS(=O)(=O)c2ccc(C(C)(C)C)cc2)n1C1CCOCC1` [Compound 21, 4-tert-butyl-N-(4-chloro-2-(5-(methoxymethyl)-4-(tetrahydro-2H-pyran-4-yl)-4H-1,2,4-triazol-3-yl)phenyl)benzenesulfonamide], the pIC50 is over 6.00.

Consider `Cc1nnc(-c2cc(Cl)ccc2NS(=O)(=O)c2ccc(C(C)(C)C)cc2)n1C` [Compound 6, 4-tert-butyl-N-(4-chloro-2-(4,5-dimethyl-4H-1,2,4-triazol-3-yl)phenyl)benzenesulfonamide], for which the pIC50 is over 6.00.
